Assay results: ChEMBL document CHEMBL3739393, “Synthesis, Structural Characterization, and Bioactivity of the Stable Peptide RCB-1 from Ricinus communis” (J Nat Prod, 2015)
Positions of bridges follow the written chain, without caps; N, C: chain ends. Residues, ends and D or L forms follow the SMILES beside them.

Key:
Pseudomonas aeruginosa = test: Antibacterial activity against Pseudomonas aeruginosa ATCC 27853 incubated for 5 hrs; type: functional, organism-based; details: ATCC 27853, 5 h
Erwinia amylovora = test: Antibacterial activity against Erwinia amylovora incubated for 5 hrs; type: functional, organism-based
[1] = Stability in human serum assessed as compound remaining after 24 hrs at 37 degC by LC/MS analysis; type: ADME; details: read-out: Stability
[2] = Cytotoxicity against human U937/GTB cells up to 50 uM by fluorescein diacetate-based fluorometric microculture cytotoxicity assay; type: cell-based; details: u-937/gtb
Aspergillus fumigatus = test: Antifungal activity against Aspergillus fumigatus incubated for 5 hrs; type: functional, organism-based
[3] = tested on: Pectobacterium carotovorum; test: Antibacterial activity against Erwinia carotovora incubated for 5 hrs; type: functional, organism-based
Staphylococcus aureus = test: Antibacterial activity against Staphylococcus aureus ATCC 29213 incubated for 5 hrs; type: functional, organism-based; details: ATCC 29213, 5 h
Escherichia coli = test: Antibacterial activity against Escherichia coli ATCC 25922 incubated for 5 hrs; type: functional, organism-based; details: ATCC 25922, 5 h
Candida albicans = test: Antifungal activity against Candida albicans ATCC 90028 incubated for 5 hrs; type: functional, organism-based; details: ATCC 90028, 5 h

Compound: CSCC[C@@H]1NC(=O)[C@H](C(C)C)NC(=O)[C@H](CC(C)C)NC(=O)[C@@H]2CSSC[C@@H](C(=O)N[C@@H](CO)C(=O)O)NC(=O)[C@H](Cc3ccccc3)NC(=O)[C@H](CCCCN)NC(=O)[C@H](C(C)C)NC(=O)[C@H](CSSC[C@H](NC(=O)[C@H](CCCNC(=N)N)NC(=O)[C@H](C)N)C(=O)N2)NC(=O)[C@H](C)NC(=O)[C@H](Cc2ccccc2)NC(=O)[C@@H]2CCCN2C(=O)[C@@H]2CCCN2C(=O)[C@H](C(C)C)NC(=O)[C@@H]2CCCN2C1=O (H-ARCCLVMPVPPFACVKFCS-OH; disulfide 3-14, 4-18)
- EC50 (Pseudomonas aeruginosa): 27 µM
- EC50 (Erwinia amylovora): > 160 µM
- remaining at 24 h [1]: > 95%
- Activity [2]: Non-toxic
- EC50 (Aspergillus fumigatus): > 160 µM
- EC50 [3]: > 160 µM
- EC50 (Staphylococcus aureus): > 160 µM
- EC50 (Escherichia coli): > 160 µM
- EC50 (Candida albicans): > 160 µM
